Results on two compounds are retold here after publication PMC12881681 (Molecular Pharmacology, 2025).

The target in data set [1] is T1, human liver cytosolic AOX1 (Homo sapiens, UniProt Q06278).
T1 sequence (Q06278 1-1338): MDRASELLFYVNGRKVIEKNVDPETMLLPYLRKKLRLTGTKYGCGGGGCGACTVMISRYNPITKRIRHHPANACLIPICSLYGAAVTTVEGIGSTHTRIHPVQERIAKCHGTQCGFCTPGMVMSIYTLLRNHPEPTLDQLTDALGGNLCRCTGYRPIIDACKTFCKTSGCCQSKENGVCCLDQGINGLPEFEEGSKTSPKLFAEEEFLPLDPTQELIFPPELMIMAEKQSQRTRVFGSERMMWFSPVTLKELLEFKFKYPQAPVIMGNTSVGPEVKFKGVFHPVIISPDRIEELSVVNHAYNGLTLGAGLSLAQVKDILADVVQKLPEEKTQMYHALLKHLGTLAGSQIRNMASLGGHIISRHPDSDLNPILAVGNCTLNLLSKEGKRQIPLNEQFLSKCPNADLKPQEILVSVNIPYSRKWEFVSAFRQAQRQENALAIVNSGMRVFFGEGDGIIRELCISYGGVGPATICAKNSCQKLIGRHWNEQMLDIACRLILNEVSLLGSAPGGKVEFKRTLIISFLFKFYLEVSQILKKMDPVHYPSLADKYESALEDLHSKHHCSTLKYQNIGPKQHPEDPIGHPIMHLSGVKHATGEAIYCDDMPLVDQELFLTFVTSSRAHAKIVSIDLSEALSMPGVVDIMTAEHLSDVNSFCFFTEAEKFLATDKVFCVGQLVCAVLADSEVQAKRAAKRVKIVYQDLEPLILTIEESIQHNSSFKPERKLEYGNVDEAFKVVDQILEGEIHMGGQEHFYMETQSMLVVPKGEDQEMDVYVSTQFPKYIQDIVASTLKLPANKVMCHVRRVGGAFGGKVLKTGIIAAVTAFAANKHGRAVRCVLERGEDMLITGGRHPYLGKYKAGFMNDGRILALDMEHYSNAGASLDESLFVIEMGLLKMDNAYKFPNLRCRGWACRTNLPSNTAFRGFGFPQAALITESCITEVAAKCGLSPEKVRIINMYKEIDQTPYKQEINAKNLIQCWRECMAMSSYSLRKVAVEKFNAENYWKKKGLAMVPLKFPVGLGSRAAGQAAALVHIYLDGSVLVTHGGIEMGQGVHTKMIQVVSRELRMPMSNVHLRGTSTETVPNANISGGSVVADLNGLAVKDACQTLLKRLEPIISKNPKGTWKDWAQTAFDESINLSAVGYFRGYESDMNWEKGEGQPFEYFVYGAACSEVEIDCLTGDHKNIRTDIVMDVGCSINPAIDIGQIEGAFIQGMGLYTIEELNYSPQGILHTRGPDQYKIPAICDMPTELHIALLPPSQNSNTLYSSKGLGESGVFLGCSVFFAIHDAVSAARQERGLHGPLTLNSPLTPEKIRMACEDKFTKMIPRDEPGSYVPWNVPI
It counts as biochemical. On the set-up: Enzymatic reaction was initiated by adding human liver cytosol (100 μg); tissue Corning, Inc. (Gentest brand) 452115; host or cells: human liver cytosol, pool of 150 donors. Conditions: 5 mM agent, 10 min; erlotinib 1.5 μM, analogs 2 μM.
Experimental: Potassium ferricyanide (5 mM; oxidizing agent), sodium dithionite (5 mM; reducing agent), or potassium phosphate buffer (vehicle for oxidizing/reducing agent) was preincubated with human liver cytosol (200 μg protein) in a total volume of 100 μL at 37 °C for 10 minutes. […] After a 0 or 6-minute preincubation duration, an aliquot (10 μL) of the secondary incubation mixture was transferred to a prewarmed tertiary incubation mixture (total volume of 200 μL) containing potassium phosphate buffer and carbazeran (15 μM), which yielded a 20-fold dilution of the secondary incubation mixture. The tertiary incubation mixture was incubated for 5 minutes at 37 °C before the enzymatic reaction was terminated with 200 μL of ice-cold acetonitrile containing carbazeran-d4 (2.5 nM final concentration; internal standard for 4-oxo-carbazeran). The residual AOX1 enzyme activity was determined by the carbazeran 4-oxidation assay.

A short description of data set [2]: Pharmacokinetics study in mice: erlotinib pretreatment, carbazeran and 4-oxo-carbazeran. The class given is in vivo, BALB/c mice. As to conditions: erlotinib 100 mg/kg p.o. The procedure: BALB/c mice (male, ∼8 weeks old) were purchased and housed at the Biological Resource Centre, Agency for Science, Technology and Research (A∗STAR). The experimental protocol was approved by the A∗STAR Institutional Review Board. […] Blood (12.5 μL) was drawn from the tail vein (with a needle prick) at various times (0.25, 0.5, 0.75, 1, 2, 3, 4, 6, and 8 hours) after carbazeran dosing. The blood samples were diluted 2 times with 12.5 μL of water. Acetonitrile containing the internal standard (carbazeran-d4, 4 nM in 75 μL acetonitrile and 3 nM in final sample volume of 100 μL) was added to the blood samples to precipitate proteins. […] Blank and standard calibration samples were prepared from control mice that were not treated with any chemicals. Pharmacokinetic data were analyzed by noncompartmental analysis using Phoenix WinNonlin 6.3 (Certara).
At the end of the last blood collection (8 hour post-carbazeran dosing), the mice were sacrificed. […] The tissue samples were homogenized, and a 12.5 μL aliquot of the homogenate was diluted with an equal volume of water. Acetonitrile containing the internal standard (carbazeran-d4, 4 nM in 75 μL acetonitrile and 3 nM in final sample volume of 100 μL) was added to the diluted tissue samples (25 μL) to precipitate the proteins.

Details of data set [3]: method as in PMID 26330331. Conditions: mice, oral dosing; cited from earlier work.
The conditions of data set [4]: clinical phase I study; cited from earlier work.
The conditions of data set [5]: ref erlotinib (TARCEVA), package insert, 2016; cited from earlier work.
Data set [6] deals with AOX1. As to conditions: zoniporide as AOX substrate; cited from earlier work.

For `C#Cc1cccc(Nc2nc(C)nc3cc(OCCOC)c(OCCOC)cc23)c1` [2-Methylerlotinib, 2-methylerlotinib], in data set [1], the “effect of preincubating cytosol with potassium ferricyanide or sodium dithionite on AOX1 inactivation” value is recorded as “neither sodium dithionite nor potassium ferricyanide affected”.

Take `C#Cc1cccc(Nc2ncnc3cc(OCCOC)c(OCCOC)cc23)c1` [Erlotinib]: in data set [2] (8 hours after carbazeran), the “concentration of 4-oxo-carbazeran metabolite in liver and kidneys” value was “decreased the concentration”; the “concentration of carbazeran in liver and kidneys” value is listed as “increased the concentration”. For the same compound, in data set [2] (all time points to 8 h), the “concentration of 4-oxo-carbazeran metabolite in blood vs vehicle-treated control” value was “far lesser concentration” and the “concentration of carbazeran in blood vs vehicle-treated control” value is reported as “greater concentration”. For the same compound, the elimination half-life in data set [3] is 42 min. Also, the “effect on plasma concentration of OSI-930” value in data set [4] is given as “increase”. Further, the Plasma fu entry in data set [5] was “e Cmax,u = plasma fu × Cmax. Plasma fu = 0.07, based on erlotinib (TARCEVA), package insert, 2016. For O-desmethylerlotinib and O-didesmethylerlotinib, the fu is assumed to be similar to the parent drug”. In data set [6], the Ki is 720 nM. The “effect of preincubating cytosol with potassium ferricyanide or sodium dithionite on AOX1 inactivation” value in data set [1] is on record as “neither sodium dithionite nor potassium ferricyanide affected”.

What is called Ki is the equilibrium dissociation constant of an inhibitor or competing ligand from its target.
